# Measured values reported in PubChem BioAssay (NCI).
# Values joined by “and” are separate entries in the source; they are usually repeats but may differ in a detail not shown here. Equal entries are not always repeated.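 Growth conditions: 96-well plates. Treatment: test compound, 48 hours, 5 concentrations. Analysis: linear interpolation between bracketing concentrations; unreached endpoints set to highest concentration. At the GI50, growth is halved. Definition used: TGI = concentration required for complete inhibition of growth.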
# Columns and labels:
# Assay in all cases: growth of human tumour cells (NCI), 48 h
# [1] = system: HOP-62 NSCLC
# [2] = system: NCI-H23 lung
# [3] = system: OVCAR-3 ovarian
# [4] = system: OVCAR-4 ovarian
# [5] = system: OVCAR-5 ovarian
# [6] = system: SF-268 CNS
# [7] = system: SK-MEL-28 melanoma
# [8] = system: SN12C renal
# [9] = system: IGROV1 ovarian
Compound,GI50 [1],TGI [1],GI50 [2],TGI [2] [µM],TGI [3],GI50 [4],TGI [4] [µM],GI50 [5],TGI [5] [µM],GI50 [6],TGI [6],GI50 [7],TGI [7] [µM],GI50 [8],TGI [8] [µM],GI50 [9],TGI [9],GI50 [3]
CC[C@H](C)C(=O)O[C@H]1CCC=C2C=C[C@H](C)C(CCC3C[C@@H](O)CC(=O)O3)[C@H]21 (some centres undefined),18.1 µM,> 100 µM,3.5 µM,> 100,> 100 µM,22.7 µM,> 100,20.8 µM,> 100,1.94 µM,> 100 µM,84.9 µM,> 100,3.5 µM,> 100,,,
Cc1ccc2sc3c(NCCCNCCO)nc4ccccc4c3c(=O)c2c1,1.27 µM,2.87 µM,1.74 µM,3.35,3.26 µM,1.64 µM,3.12,1.62 µM,3.16,1.57 µM,3.2 µM,1.8 µM,3.36,1.6 µM,3.16,1.59 µM,3.14 µM,1.75 µM
C=C[C@]1(C)C=C2C(=O)[C@@]3(O)OC(=O)[C@@]4(CCCC(C)(C)[C@H]34)[C@@]2(O)CC1,4.17 µM,15.7 µM,2.14 µM,5.29,2.52 µM,1.05 µM,2.87,1.97 µM,3.85,1.89 µM,4.69 µM,1.67 µM,3.22,1.96 µM,4.82,2.16 µM,4.58 µM,1.08 µM
CCOC(=O)c1c(Cl)c2c(n1Cc1cc(OC)cc(OC)c1)-c1oncc1CCC2,0.466 µM,> 33.3 µM,0.607 µM,> 100,2.51 µM,1.91 µM,> 85.3,0.812 µM,> 100,1.65 µM,> 100 µM,0.554 µM,> 100,0.77 µM,> 100,0.317 µM,> 54.8 µM,0.253 µM
Nc1nccc(Nc2ccc(S(N)(=O)=O)cc2)n1,,> 100 µM,,> 100,> 100 µM,,> 100,,> 100,,> 100 µM,,> 100,,> 100,,> 100 µM,
CC(C)(O)[C@H]1[C@@H]2OC(=O)[C@H]1[C@]1(O)C[C@H]3OC34C(=O)O[C@H]2[C@@]41C (some centres undefined) (tested in a mixture with another compound),,> 100 µM,,> 100,> 100 µM,,> 100,,> 100,,> 100 µM,,> 100,,> 100,,> 100 µM,
Cc1ccc(C(=O)NC2CCCCC2)cc1-c1ccc(C(=O)NCC2CC2)cc1,> 25 µM,> 25 µM,> 25 µM,> 25,> 25 µM,> 25 µM,> 25,> 25 µM,> 25,> 25 µM,> 25 µM,> 25 µM,> 25,> 25 µM,> 25,> 25 µM,> 25 µM,> 23 µM
O=C(/C=C/c1ccccc1)CCC1C(=O)NC(=O)NC1=O,,,,> 100,> 100 µM,,> 100,,> 100,,> 100 µM,,> 100,,> 100,,> 100 µM,
O=C(O)CCC1CCC(c2cc(F)ccc2F)(S(=O)(=O)c2ccc(Cl)cc2)CC1 (centres undefined),30.5 µM and > 100 µM,> 100 µM,23.4 µM and > 100 µM,> 100,63.5 µM and > 100 µM,30.5 µM and > 65.6 µM,> 100,92.2 µM and > 100 µM,> 100,48.3 µM and > 100 µM,> 100 µM,25.5 µM and > 100 µM,> 100,49 µM and > 100 µM,> 100,18 µM and 80.7 µM,65 µM and > 100 µM,22.7 µM and > 100 µM
COC(=O)N/N=C(\C)C(CN1CCOCC1)C(c1ccccc1)c1cc2ccccc2oc1=O (centres undefined),,> 100 µM,,> 100,> 100 µM,,> 100,,> 100,,> 100 µM,,> 100,,> 100,,> 100 µM,
CC1(C)C2CCC13C(=O)C1OC3(C2)C2C(=O)c3c(O)ccc(O)c3C(=O)C12 (centres undefined),54.5 µM,> 100 µM,16.4 µM,37.5,,> 100 µM,> 100,38.3 µM,> 100,> 47.1 µM,> 100 µM,36 µM,> 100,16.3 µM,35.7,23.8 µM,> 100 µM,
NC(=O)Oc1cc(OC(N)=O)cc(N(CCCl)CCCl)c1,20.9 µM,> 100 µM,6.12 µM,63,25.9 µM,14.8 µM,79.3,4.35 µM,30,1.88 µM,29.4 µM,15.7 µM,65.3,2.41 µM,> 100,6.71 µM,49 µM,4.74 µM
O=C(NCC#CCO)C(F)(F)F,,> 100 µM,,> 100,,,> 100,,> 100,,> 100 µM,,> 100,,> 100,,> 100 µM,
COC(=O)/C(=C/CC(N=C(c1ccccc1)c1ccccc1)C(=O)OC)N=C(c1ccccc1)c1ccccc1 (centres undefined),,> 100 µM,,> 100,> 100 µM,,> 100,,,,> 100 µM,,> 100,,> 100,,> 100 µM,
COC1CC2CCC(C)[C@](O)(O2)C(=O)C(=O)N2CCCCC2C(=O)OC(C(C)CC2CCC(O)C(OC)C2)CC(=O)C(C)C=C(C)C(OC(=O)CN(C)C)C(OC)C(=O)C(C)CC(C)/C=C/C=C/C=C\1C (some centres undefined),,19.3 µM,,24.3,22 µM,,,,26.4,,14.8 µM,,20.7,,18.7,,9.88 µM,
Cn1cnc2c(NCc3ccccc3)nc(NCCO)nc21,,> 86 µM and 183 µM,110 µM,382,> 406 µM,110 µM,339,,> 217,86.2 µM,> 91.2 µM and 223 µM,88.7 µM,280,,,67.9 µM,334 µM,33 µM and 115 µM
CCN(CC)CCOc1cc2c(C(=O)OC)c(C)oc2cc1C(C)=O,,,11.8 µM,27.7,> 100 µM,,,15.4 µM,29.1,13.6 µM,32.6 µM,,,1.64 µM,6.54,8.53 µM,33 µM,45.1 µM
